Measured values taken from US11242327B2, “Analgesic compounds” (RECURIUM IP HOLDINGS, LLC, priority 2017, dated 2022).

Experiments:
male Sprague-Dawley rats [1] = test: Formalin Paw Test, rat, oral; format: in vivo; conditions: 30 mg/kg
Method in brief: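 Paw licking recorded every 5 min for 35 min after formalin injection, in groups of 8 non-fasted males: Sprague-Dawley rats (200–225 g) dosed orally or ICR mice (23±3 g) dosed intraperitoneally. Scores are licking-time bins: A <70 s, B 70–165 s, C >165 s.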

male Sprague-Dawley rats [2] = test: Osteoarthritis Pain Test (MIA, mechanical hyperalgesia); format: in vivo; conditions: rat; for joint compression threshold, Day 3, 1 h: Day 3, 1 h post-dosing; for joint compression threshold, Day 3, 2 h: Day 3, 2 h post-dosing; for joint compression threshold, Day 3, 4 h: Day 3, 4 h post-dosing; for joint compression threshold, Day 6, 1 h: Day 6, 1 h post-dosing; for joint compression threshold, Day 6, 2 h: Day 6, 2 h post-dosing; for joint compression threshold, Day 6, 4 h: Day 6, 4 h post-dosing; for joint compression threshold, Day 0, 1 h: Day 0, 1 h post-dosing; for joint compression threshold, Day 0, 2 h: Day 0, 2 h post-dosing; for joint compression threshold, Day 0, 4 h: Day 0, 4 h post-dosing
Description: Osteoarthritis pain was induced in non-fasted male Sprague-Dawley rats weighing 150-250 g by injecting 2 mg of monosodium iodoacetate (MIA) into the left knee joint. Mechanical hyperalgesia was measured using a digital Randall-Selitto device (dRS; IITC Life Sciences©; Woodland Hills, Calif.). Animals were allowed to acclimate to the testing room for a minimum of 15 minutes before testing. Animals were placed in a restraint sling that suspended the animal, leaving the hind limbs available for testing. The stimulus was applied to the knee joint by a blunt tip and pressure was applied gradually over approximately 10 seconds. Joint compression threshold values were recorded at the first observed nocifensive behavior (vocalization, struggle, or withdrawal). One reading per joint was taken at each time point, and a maximum stimulus cutoff of 500 grams was used to prevent injury to the animal. Mechanical hyperalgesia was assessed prior to MIA injection, and again 14 days later. After 14 days, test or control articles were administered once daily for 7 days with mechanical hyperalgesia assessed prior to dosing, 1, 2, and 4 hours post-dosing on days 0, 3, and 6. Test compounds were administered orally at concentrations of 3, 10, 30 or 100 mg/kg and celecoxib was administered orally at a concentration of 30 mg/kg. The control group received the vehicle (sterile water). After day 0, groups receiving the 100 mg/kg dose were reduced to a dose of 3 mg/kg. In Table 5, ‘A’ designates ≥375 grams of joint compression, ‘B’ designates ≥325 and <375 grams of joint compression, and ‘C’ designates <325 grams of joint compression.
The results provided in Table 5 are for oral administration in rats.

male Sprague-Dawley rats [3] = test: Spinal Nerve Ligation (SNL) Neuropathic Pain Test; format: in vivo; conditions: rat, oral; for 50% response threshold, 1 h: 1 h after administration; for 50% response threshold, 2 h: 2 h after administration; for 50% response threshold, 4 h: 4 h after administration
Description: Neuropathy was induced in non-fasted male Sprague-Dawley rats weighing 75-100 g by surgically ligating the 4th and 5th lumbar spinal nerves (L4 and L5), a procedure also known as spinal nerve ligation (SNL). Animals were placed in individual acrylic chambers on a metal mesh surface and allowed to acclimate to their surroundings for a minimum of 15 minutes before testing. Mechanical sensitivity was assessed using 8 Semmes-Weinstein filaments (Stoelting©; Wood Dale, Ill., USA) with varying stiffness (0.4, 0.6, 1.0, 2.0, 4.0, 6.0, 8.0, and 15 g) according to an up-down method to determine 50% response thresholds. Each filament was presented perpendicular to the plantar surface with sufficient force to cause slight buckling against the paw and held for approximately 6 seconds or until a positive response is noted (paw sharply withdrawn). Testing was initiated with the 2.0 g filament. In the absence of a paw withdrawal response, the next stronger stimulus was presented. In the event of paw withdrawal, the next weaker stimulus was used. This process was repeated until 4 responses after the initial change in response (no response to positive response or positive response to no response) were obtained. […] The 50% response threshold was calculated using the formula: 50% response threshold (g)=(10^(Xf+kδ))/10,000;
Xf=value (in log units) of the final von Frey filament used;
k=tabular value for the pattern of positive/negative responses (See Chaplan, et al. “Quantitative Assessment of Tactile Allodynia in the Rat Paw” J. Neurosci. Meth. 53.1 (1994): 56-63);
[…] =mean difference (in log units) between stimuli.
The mean and standard error of the mean (SEM) were determined for each paw for each treatment group at each time point. Thresholds were determined prior to surgery and again 14 days later. After 14 days, test or control compounds were administered and thresholds were again determined 1, 2, and 4 hours after compound administration. Median response thresholds in compound-treated animals were compared to those in vehicle treated animals to determine anti-allodynic efficacy of test and control compounds. Test compounds were administered orally at concentrations of 10, 30 or 100 mg/kg and gabapentin was administered orally at a concentration of 100 mg/kg. The control group received the vehicle (sterile water). In Table 7, ‘A’ designates a 50% threshold of ≥8 grams, ‘B’ designates a 50% threshold of ≥6 and <8 grams, and ‘C’ designates a 50% threshold of <6 grams.
The results provided in Table 7 are for oral administration in rats.

Opiate κ = Opiate κ (Homo sapiens, UniProt P41145); test: NSAIDS and Opioid Receptor Test: Opiate κ; format: binding; conditions: 10 μM
Description: Compounds were screened as DMSO solutions at 10 μM, 100 μM, or 200 μM and values represent percent inhibition of control-specific binding. […] As NSAID and opioid mechanisms of action are precluded, a person of ordinary skill in the art understands that undesirable side effects associated with inhibition of COX receptors in NSAIDs and activation of opiate receptors in opioids can be avoided by compounds described herein. Furthermore, opioids are known to lose their analgesic potency after to continued administration. (See Benyamin, et al. “Opioid Complications and Side Effects” Pain Physician 11 (2008): S105-S120). As the data indicates compounds described herein have a different mechanism action compared to opioids, a person of ordinary skill in the art would appreciate that compounds described herein would not be expected to lose their analgesic potency like opioids after continued admininistration.

[4] = oral once daily, 3 mg/kg (group had 100 mg/kg on day 0)

Chain of Opiate κ (P41145 whole entry): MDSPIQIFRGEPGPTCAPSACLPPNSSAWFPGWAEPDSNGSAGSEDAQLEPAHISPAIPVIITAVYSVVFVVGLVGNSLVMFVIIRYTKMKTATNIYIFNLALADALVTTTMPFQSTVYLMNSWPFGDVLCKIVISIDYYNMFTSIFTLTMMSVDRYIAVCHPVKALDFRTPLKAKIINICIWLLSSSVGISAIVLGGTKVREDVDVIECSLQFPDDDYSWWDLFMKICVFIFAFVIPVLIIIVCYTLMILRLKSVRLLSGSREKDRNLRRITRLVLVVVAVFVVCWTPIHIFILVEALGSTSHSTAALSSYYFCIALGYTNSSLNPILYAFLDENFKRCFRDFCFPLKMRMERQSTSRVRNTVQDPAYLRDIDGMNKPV

In the case of `Cc1sc(C23CC(N)(C2)C3)nc1C(F)(F)F.Cl` [Compound 2, 3-(5-Methyl-4-(trifluoromethyl)thiazol-2-yl)bicyclo[1.1.1]pentan-1-amine hydrochloride], the “Early Phase, seconds of paw licking” value (male Sprague-Dawley rats [1]; early/acute phase (0-10 minutes)) is reported as “A (<70 seconds of paw licking)”, the “Late Phase, seconds of paw licking” value (male Sprague-Dawley rats [1]; late/tonic phase (10-35 minutes)) is reported as “A (<70 seconds of paw licking)” and the “joint compression threshold, Day 3, 1 h” value (male Sprague-Dawley rats [2]; [4]) is reported as “A (≥375 grams of joint compression)”. The “joint compression threshold, Day 3, 2 h” value (male Sprague-Dawley rats [2]; [4]) was “A (≥375 grams of joint compression)”, the “joint compression threshold, Day 3, 4 h” value (male Sprague-Dawley rats [2]; [4]) was “A (≥375 grams of joint compression)” and the “joint compression threshold, Day 6, 1 h” value (male Sprague-Dawley rats [2]; [4]) was “B (≥325 and <375 grams of joint compression)”. The “joint compression threshold, Day 6, 2 h” value (male Sprague-Dawley rats [2]; [4]) was “B (≥325 and <375 grams of joint compression)”, the “joint compression threshold, Day 6, 4 h” value (male Sprague-Dawley rats [2]; [4]) was “B (≥325 and <375 grams of joint compression)” and the “joint compression threshold, Day 0, 1 h” value (male Sprague-Dawley rats [2]; oral once daily, 10 mg/kg) was “C (<325 grams of joint compression)”. The “joint compression threshold, Day 0, 2 h” value (male Sprague-Dawley rats [2]; oral once daily, 10 mg/kg) was “C (<325 grams of joint compression)”, the “joint compression threshold, Day 0, 4 h” value (male Sprague-Dawley rats [2]; oral once daily, 10 mg/kg) was “C (<325 grams of joint compression)” and the “joint compression threshold, Day 3, 1 h” value (male Sprague-Dawley rats [2]; oral once daily, 10 mg/kg) was “B (≥325 and <375 grams of joint compression)”. The “joint compression threshold, Day 3, 2 h” value (male Sprague-Dawley rats [2]; oral once daily, 10 mg/kg) was “A (≥375 grams of joint compression)”, the “joint compression threshold, Day 3, 4 h” value (male Sprague-Dawley rats [2]; oral once daily, 10 mg/kg) was “C (<325 grams of joint compression)” and the “joint compression threshold, Day 6, 1 h” value (male Sprague-Dawley rats [2]; oral once daily, 10 mg/kg) was “B (≥325 and <375 grams of joint compression)”. The “joint compression threshold, Day 6, 2 h” value (male Sprague-Dawley rats [2]; oral once daily, 10 mg/kg) was “B (≥325 and <375 grams of joint compression)”, the “joint compression threshold, Day 6, 4 h” value (male Sprague-Dawley rats [2]; oral once daily, 10 mg/kg) was “A (≥375 grams of joint compression)” and the “joint compression threshold, Day 0, 1 h” value (male Sprague-Dawley rats [2]; oral once daily, 30 mg/kg) was “B (≥325 and <375 grams of joint compression)”. For the same compound, the “joint compression threshold, Day 0, 2 h” value (male Sprague-Dawley rats [2]; oral once daily, 30 mg/kg) was “B (≥325 and <375 grams of joint compression)”, the “joint compression threshold, Day 0, 4 h” value (male Sprague-Dawley rats [2]; oral once daily, 30 mg/kg) was “B (≥325 and <375 grams of joint compression)” and the “joint compression threshold, Day 3, 1 h” value (male Sprague-Dawley rats [2]; oral once daily, 30 mg/kg) was “B (≥325 and <375 grams of joint compression)”. The “joint compression threshold, Day 3, 2 h” value (male Sprague-Dawley rats [2]; oral once daily, 30 mg/kg) was “B (≥325 and <375 grams of joint compression)”, the “joint compression threshold, Day 3, 4 h” value (male Sprague-Dawley rats [2]; oral once daily, 30 mg/kg) was “B (≥325 and <375 grams of joint compression)” and the “joint compression threshold, Day 6, 1 h” value (male Sprague-Dawley rats [2]; oral once daily, 30 mg/kg) was “B (≥325 and <375 grams of joint compression)”. For the same compound, the “joint compression threshold, Day 6, 2 h” value (male Sprague-Dawley rats [2]; oral once daily, 30 mg/kg) was “B (≥325 and <375 grams of joint compression)”, the “joint compression threshold, Day 6, 4 h” value (male Sprague-Dawley rats [2]; oral once daily, 30 mg/kg) was “A (≥375 grams of joint compression)” and the “joint compression threshold, Day 0, 1 h” value (male Sprague-Dawley rats [2]; oral, 100 mg/kg) was “A (≥375 grams of joint compression)”. For the same compound, the “joint compression threshold, Day 0, 2 h” value (male Sprague-Dawley rats [2]; oral, 100 mg/kg) was “A (≥375 grams of joint compression)”, the “joint compression threshold, Day 0, 4 h” value (male Sprague-Dawley rats [2]; oral, 100 mg/kg) was “A (≥375 grams of joint compression)” and the “50% response threshold, 1 h” value (male Sprague-Dawley rats [3]; 10 mg/kg) was “C (a 50% threshold of <6 grams)”. For the same compound, the “50% response threshold, 2 h” value (male Sprague-Dawley rats [3]; 10 mg/kg) was “C (a 50% threshold of <6 grams)”, the “50% response threshold, 4 h” value (male Sprague-Dawley rats [3]; 10 mg/kg) was “C (a 50% threshold of <6 grams)” and the “50% response threshold, 1 h” value (male Sprague-Dawley rats [3]; 30 mg/kg) was “C (a 50% threshold of <6 grams)”. The “50% response threshold, 2 h” value (male Sprague-Dawley rats [3]; 30 mg/kg) was “C (a 50% threshold of <6 grams)”, the “50% response threshold, 4 h” value (male Sprague-Dawley rats [3]; 30 mg/kg) was “C (a 50% threshold of <6 grams)” and the “50% response threshold, 1 h” value (male Sprague-Dawley rats [3]; 100 mg/kg) was “A (a 50% threshold of ≥8 grams)”. For the same compound, the “50% response threshold, 2 h” value (male Sprague-Dawley rats [3]; 100 mg/kg) was “A (a 50% threshold of ≥8 grams)”, the “50% response threshold, 4 h” value (male Sprague-Dawley rats [3]; 100 mg/kg) was “B (a 50% threshold of ≥6 and <8 grams)” and the inhibition at 10 µM (Opiate κ) was -9%.
